The target in test [1] is T1, Short transient receptor potential channel 4 (Mus musculus, UniProt Q9QUQ5).
T1 sequence (Q9QUQ5 whole entry): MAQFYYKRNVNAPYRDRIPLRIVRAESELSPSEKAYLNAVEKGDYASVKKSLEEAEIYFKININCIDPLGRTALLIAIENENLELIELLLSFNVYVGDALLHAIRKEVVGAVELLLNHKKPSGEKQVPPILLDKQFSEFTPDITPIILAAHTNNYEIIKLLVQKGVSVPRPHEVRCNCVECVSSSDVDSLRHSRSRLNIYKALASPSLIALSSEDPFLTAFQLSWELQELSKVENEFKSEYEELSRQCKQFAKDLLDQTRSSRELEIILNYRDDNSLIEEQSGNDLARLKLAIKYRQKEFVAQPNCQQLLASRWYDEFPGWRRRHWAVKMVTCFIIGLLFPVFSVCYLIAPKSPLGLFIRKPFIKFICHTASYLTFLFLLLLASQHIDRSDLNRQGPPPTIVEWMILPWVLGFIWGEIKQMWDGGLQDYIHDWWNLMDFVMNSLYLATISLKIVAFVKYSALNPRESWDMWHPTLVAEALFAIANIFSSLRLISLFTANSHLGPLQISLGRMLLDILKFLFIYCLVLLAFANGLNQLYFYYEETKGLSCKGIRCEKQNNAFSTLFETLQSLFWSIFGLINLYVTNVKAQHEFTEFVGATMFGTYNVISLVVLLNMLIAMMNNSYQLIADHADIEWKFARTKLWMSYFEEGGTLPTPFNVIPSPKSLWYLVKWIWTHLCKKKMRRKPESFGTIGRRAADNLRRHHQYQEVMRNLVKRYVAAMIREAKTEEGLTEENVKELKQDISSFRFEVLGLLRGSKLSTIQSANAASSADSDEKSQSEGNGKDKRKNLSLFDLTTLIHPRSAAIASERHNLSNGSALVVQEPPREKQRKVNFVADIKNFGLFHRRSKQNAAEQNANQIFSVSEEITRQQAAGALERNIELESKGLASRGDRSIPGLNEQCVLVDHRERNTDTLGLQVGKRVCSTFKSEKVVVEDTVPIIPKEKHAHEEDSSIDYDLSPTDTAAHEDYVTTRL
Put plainly: potentiation of DAMGO-evoked TRPC4 calcium signal – cell-based, HEK293 TRPC4/mu-opioid, Fluo-4 calcium, EC20 DAMGO, dose response (AID 434941).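 Note: HEK293 cells coexpressing TRPC4 and mu opioid receptor stimulated by EC20 DAMGO.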 The class given is functional.

Test [2] concerns the target T2, Sphingosine 1-phosphate receptor 4 (Homo sapiens, UniProt O95977).
T2 sequence (O95977 whole entry): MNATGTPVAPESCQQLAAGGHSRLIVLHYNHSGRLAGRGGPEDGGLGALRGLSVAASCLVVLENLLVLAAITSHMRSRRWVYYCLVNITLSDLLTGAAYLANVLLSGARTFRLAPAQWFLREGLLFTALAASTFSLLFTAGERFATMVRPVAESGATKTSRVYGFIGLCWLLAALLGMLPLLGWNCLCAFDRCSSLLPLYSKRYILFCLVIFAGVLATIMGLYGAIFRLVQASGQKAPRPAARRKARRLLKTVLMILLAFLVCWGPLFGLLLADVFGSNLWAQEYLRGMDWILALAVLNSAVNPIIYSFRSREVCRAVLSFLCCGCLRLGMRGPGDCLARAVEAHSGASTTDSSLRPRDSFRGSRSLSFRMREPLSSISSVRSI
Put plainly: potency of S1P4 activators – cell-based, fluorescence, synthesized compounds, late-stage follow-up (AID 463107). The class given is functional.

Test [3] addresses Voltage-dependent T-type calcium channel subunit alpha-1H (Homo sapiens, UniProt O95180). The test can be described thus: human CACNA1H calcium influx blockade – cell-based, synthetic library set 1, calcium flux (AID 493022). The class given is functional. Background: Calcium assays in cells follow changes in intracellular calcium, usually with a dye or a luminescent sensor.
Test [4] in a line: HPDE-C7 pancreatic duct cell viability loss – fluorescence, HTS (AID 430). The test is classed as functional, cell-based. Particulars: Homo sapiens.
A short description of test [5]: viability of PTEN-deleted HCT116 cells – cell-based, HCT116 PTEN knockout, dose response (AID 1047).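 Note: HCT116 colon tumor cells with PTEN knocked out; cells exposed to compound for 60 hours before readout; potency for loss of cell viability measured by luminescence.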 The test is classed as functional.
The nature of test [6]: microbe, parasite or virus in culture. The class given is functional. Particulars: Mycobacterium tuberculosis.
The target in test [7] is T3, Lysosomal acid glucosylceramidase (Homo sapiens, UniProt P04062).
T3 sequence (P04062 whole entry): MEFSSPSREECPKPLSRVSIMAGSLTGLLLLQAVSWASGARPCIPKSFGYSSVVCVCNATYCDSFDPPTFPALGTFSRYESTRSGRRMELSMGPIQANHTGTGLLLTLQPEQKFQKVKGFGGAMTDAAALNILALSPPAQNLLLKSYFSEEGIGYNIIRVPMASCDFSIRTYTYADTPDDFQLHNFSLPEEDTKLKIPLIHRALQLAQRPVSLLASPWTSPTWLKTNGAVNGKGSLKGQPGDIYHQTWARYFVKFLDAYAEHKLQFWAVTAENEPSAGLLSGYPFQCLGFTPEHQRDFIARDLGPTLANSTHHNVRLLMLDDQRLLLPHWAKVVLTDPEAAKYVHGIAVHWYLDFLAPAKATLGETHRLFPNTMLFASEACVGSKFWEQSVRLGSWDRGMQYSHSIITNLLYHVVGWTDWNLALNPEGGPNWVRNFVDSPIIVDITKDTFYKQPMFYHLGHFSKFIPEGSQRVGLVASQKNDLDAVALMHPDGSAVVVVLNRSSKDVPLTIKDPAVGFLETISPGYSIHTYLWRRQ
Put plainly: Dose response cell-based high throughput screening assay to identify enhancers of beta-glucosidase activity. [Related pubchem assays: 784 ]. The test is classed as functional.

The target of test [8] is G-protein coupled receptor 55 (Homo sapiens, UniProt Q9Y2T6). Put plainly: selective activators of receptor GPR55 – imaging, U2OS cells, beta-arrestin-GFP redistribution, primary screen (AID 1961). The class given is functional.
For a further test, the target named is Cytochrome P450 2D6 (Homo sapiens, UniProt P10635).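 Note: CYP2D6 member of a cytochrome P450 panel assay.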
Test [9] is described as follows: viability of HCT116 lacking mutant beta-catenin – cell-based, human colon tumor, dose response (AID 1045).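 Note: HCT116 colon tumor cells with beta catenin knocked out; cells exposed to compound for 60 hours.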 The test is classed as functional.
A short description of test [10]: viability loss of HPDE-C7K cells – cell-based, fluorescence, HTS, primary screen (AID 431). Particulars: Homo sapiens. The class given is functional.

Activity calls are given as the source filed them. A value given as a limit tells only on which side of the number the result lay.

Chain of Voltage-dependent T-type calcium channel subunit alpha-1H (O95180 whole entry): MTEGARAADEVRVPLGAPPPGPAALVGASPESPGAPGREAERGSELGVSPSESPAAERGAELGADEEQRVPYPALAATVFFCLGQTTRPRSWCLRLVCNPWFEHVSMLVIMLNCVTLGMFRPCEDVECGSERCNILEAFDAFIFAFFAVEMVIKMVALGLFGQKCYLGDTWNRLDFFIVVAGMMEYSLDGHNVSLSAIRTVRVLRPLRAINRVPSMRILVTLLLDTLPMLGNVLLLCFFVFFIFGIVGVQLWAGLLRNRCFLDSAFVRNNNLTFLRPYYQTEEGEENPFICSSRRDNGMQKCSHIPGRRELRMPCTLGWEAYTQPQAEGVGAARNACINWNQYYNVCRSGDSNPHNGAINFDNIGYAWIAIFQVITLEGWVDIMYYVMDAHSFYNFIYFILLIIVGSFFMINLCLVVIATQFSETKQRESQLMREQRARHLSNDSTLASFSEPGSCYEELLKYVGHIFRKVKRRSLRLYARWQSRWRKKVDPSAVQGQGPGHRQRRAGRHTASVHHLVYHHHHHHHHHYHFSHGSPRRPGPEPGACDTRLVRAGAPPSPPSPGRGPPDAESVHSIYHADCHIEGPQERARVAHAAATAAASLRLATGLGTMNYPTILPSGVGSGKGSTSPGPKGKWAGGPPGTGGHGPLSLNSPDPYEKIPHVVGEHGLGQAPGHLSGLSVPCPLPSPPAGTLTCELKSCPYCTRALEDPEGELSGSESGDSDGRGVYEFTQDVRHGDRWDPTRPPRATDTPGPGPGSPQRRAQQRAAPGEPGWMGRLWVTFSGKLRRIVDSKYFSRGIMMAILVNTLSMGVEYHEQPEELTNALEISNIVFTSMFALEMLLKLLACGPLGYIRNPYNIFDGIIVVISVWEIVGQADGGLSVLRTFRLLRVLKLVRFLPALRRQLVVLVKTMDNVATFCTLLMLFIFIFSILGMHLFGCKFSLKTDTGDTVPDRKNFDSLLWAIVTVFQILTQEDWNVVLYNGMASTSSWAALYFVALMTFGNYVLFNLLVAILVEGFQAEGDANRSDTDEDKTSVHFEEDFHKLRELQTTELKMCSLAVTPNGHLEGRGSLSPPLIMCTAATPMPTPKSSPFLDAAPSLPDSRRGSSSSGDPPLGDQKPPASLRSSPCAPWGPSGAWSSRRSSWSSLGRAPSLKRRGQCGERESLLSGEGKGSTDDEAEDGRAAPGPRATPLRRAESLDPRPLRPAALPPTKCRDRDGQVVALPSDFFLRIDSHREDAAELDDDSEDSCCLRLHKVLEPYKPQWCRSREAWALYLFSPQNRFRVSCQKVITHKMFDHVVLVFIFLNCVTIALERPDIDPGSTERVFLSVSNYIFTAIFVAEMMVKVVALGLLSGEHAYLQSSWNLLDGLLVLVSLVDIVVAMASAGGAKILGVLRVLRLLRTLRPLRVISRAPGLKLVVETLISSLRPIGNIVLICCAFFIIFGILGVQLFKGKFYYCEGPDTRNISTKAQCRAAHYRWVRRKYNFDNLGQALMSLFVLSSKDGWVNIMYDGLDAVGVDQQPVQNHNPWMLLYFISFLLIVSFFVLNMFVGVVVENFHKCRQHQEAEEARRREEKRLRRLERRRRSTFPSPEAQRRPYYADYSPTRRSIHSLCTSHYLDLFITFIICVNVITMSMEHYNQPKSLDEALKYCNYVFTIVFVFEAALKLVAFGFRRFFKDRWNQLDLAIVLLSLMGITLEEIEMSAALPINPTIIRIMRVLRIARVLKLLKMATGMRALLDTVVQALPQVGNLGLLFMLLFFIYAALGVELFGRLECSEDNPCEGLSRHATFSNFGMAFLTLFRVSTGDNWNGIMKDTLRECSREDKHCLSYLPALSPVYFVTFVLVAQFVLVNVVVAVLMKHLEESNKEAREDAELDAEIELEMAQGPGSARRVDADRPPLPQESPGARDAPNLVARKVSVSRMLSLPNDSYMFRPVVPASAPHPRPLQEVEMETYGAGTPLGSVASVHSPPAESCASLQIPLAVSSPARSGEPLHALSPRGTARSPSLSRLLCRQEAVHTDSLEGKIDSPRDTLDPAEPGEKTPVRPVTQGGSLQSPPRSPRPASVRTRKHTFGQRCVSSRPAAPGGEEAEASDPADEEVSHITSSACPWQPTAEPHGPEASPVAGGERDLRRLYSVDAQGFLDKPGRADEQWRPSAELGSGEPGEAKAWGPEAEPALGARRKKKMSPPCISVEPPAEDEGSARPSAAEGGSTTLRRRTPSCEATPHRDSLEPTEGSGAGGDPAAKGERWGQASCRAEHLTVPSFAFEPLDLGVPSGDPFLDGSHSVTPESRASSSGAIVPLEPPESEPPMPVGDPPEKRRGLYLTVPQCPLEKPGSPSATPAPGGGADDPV
Chain of G-protein coupled receptor 55 (Q9Y2T6 whole entry): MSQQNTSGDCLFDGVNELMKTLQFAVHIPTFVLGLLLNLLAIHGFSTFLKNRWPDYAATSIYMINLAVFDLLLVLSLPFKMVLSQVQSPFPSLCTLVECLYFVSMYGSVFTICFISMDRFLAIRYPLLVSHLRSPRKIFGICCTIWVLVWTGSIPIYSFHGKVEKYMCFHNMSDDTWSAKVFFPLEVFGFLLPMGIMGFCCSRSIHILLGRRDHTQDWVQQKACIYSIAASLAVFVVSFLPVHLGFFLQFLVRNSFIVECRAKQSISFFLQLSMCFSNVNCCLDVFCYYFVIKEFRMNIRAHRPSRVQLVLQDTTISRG
Chain of Cytochrome P450 2D6 (P10635 whole entry): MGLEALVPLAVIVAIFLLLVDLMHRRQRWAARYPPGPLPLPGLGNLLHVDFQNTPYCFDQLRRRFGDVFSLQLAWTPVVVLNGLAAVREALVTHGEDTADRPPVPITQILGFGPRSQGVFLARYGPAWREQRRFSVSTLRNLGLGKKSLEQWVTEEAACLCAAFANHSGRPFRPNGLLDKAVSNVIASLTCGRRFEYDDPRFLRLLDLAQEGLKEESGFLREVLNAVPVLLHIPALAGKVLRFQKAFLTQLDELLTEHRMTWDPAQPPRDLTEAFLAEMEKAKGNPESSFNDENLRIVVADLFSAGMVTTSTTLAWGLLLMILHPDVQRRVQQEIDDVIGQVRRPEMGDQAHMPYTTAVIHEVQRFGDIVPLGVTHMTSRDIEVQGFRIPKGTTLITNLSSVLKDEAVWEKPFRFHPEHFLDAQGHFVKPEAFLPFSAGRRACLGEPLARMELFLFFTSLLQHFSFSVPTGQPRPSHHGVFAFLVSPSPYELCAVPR

As for `CC1Cc2ccccc2N1C(=O)CSc1nc2c(c(=O)n(C)c(=O)n2C)n1Cc1ccc(F)cc1` (stereo unspecified), in [1], the 50% effective concentration (EC50) is 1.33 µM (active).

Regarding `Cc1ccc(OCCOc2ccccc2)c([N+](=O)[O-])n1`, the EC50 in [2] is > 50 µM (inactive).

In the case of `O=C(COc1ccc(F)cc1)Nc1nnc(-c2ccc3ccccc3c2)o1`, the concentration for a half-maximal effect (EC50) in [3] was 3.5 µM (active).

For the compound `FC(F)(F)c1ccc(N2CCOCC2)c(Nc2nc3ccccc3n3cnnc23)c1`, the EC50 is 5.89 µM (active) in test [4]; 13.5 µM (active) in [5]; > 50 µM (not active) in test [7]; 4.18 µM (active) in [8]; 16.5 µM (active) in [9]; 5.98 µM (active) in [10]. Also, in [6], the CC50 is 27.4 µM (active). For the same compound, at Cytochrome P450 2D6, the concentration at half-maximal activity (AC50) was 28.2 µM (inconclusive).

In general, EC50 refers to the concentration needed to bring the measured effect to its halfway point. What is called AC50 is the midpoint of the concentration-response curve, whichever way the signal moves.

(Values after ChEMBL document CHEMBL1201862, “PubChem BioAssay data set” (2004).)
